Among the data in US11149018B2, “Substituted N-arylethyl-2-aminoquinoline-4-carboxamides and use thereof” (Bayer Aktiengesellschaft, priority 2017, dated 2021) are IC50 values, retold here.

Chain of FP receptor (P43088 whole entry): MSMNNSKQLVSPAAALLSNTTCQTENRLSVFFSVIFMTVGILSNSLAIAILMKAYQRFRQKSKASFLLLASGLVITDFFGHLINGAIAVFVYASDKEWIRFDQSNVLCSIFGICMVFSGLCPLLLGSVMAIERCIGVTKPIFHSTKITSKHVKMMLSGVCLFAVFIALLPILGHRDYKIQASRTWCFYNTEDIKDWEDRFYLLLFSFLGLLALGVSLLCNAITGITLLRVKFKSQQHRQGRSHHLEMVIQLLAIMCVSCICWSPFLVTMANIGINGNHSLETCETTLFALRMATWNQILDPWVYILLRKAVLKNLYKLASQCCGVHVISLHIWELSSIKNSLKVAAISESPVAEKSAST

This experiment deals with FP receptor (Homo sapiens (Human), UniProt P43088). Description: In vitro test of inhibition of human FP receptor activity (PGF2α-induced calcium flux in FP-expressing CHEM1 cells). The class given is cell-based. Particulars: PGF2α 2 nM, some mean values of multiple determinations. Summed up:
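FP antagonism in FP-expressing CHEM1 cells loaded with Fluo-8. Compound preincubated 10 min at 37° C, then receptor stimulated with 2 nM (final) PGF2α in calcium-free Tyrode with 2 mM CaCl2.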
(Calcium assays in cells follow changes in intracellular calcium, usually with a dye or a luminescent sensor.)
One may read the IC50 as the point on the concentration scale where inhibition reaches its midpoint. Consider `Cc1c(N2CC[C@H](F)C2)nc2ccc(Br)cc2c1C(=O)NCC(CCC(=O)O)c1ccccc1Cl` (stereo partly drawn) [Example 65, 5-[({6-Bromo-2-[(3S)-3-fluoropyrrolidin-1-yl]-3-methylquinolin-4-yl}carbonyl)amino]-4-(2-chlorophenyl)pentanoic acid], for which the IC50 amounted to 110 nM.

In the case of `Cc1c(N2CC[C@@H](F)C2)nc2ccc(Br)cc2c1C(=O)NCC(CCC(=O)O)c1ccccc1Cl` (stereo partly drawn) [Example 66, 5-[({6-Bromo-2-[(3R)-3-fluoropyrrolidin-1-yl]-3-methylquinolin-4-yl}carbonyl)amino]-4-(2-chlorophenyl)pentanoic acid], the half-inhibitory concentration (IC50) was 12 nM.

For `Cc1c(N2CC(F)C(F)C2)nc2ccc(Br)cc2c1C(=O)NCC(CCC(=O)O)c1ccccc1Cl` (stereo not drawn) [Example 69, 5-[({6-Bromo-2-[trans-3,4-difluoropyrrolidin-1-yl]-3-methylquinolin-4-yl}carbonyl)amino]-4-(2-chlorophenyl)pentanoic acid], the IC50 is 42 nM.

On to `Cc1c(N2CCC(C)(F)C2)nc2ccc(Br)cc2c1C(=O)NCC(CCC(=O)O)c1ccccc1Cl` (stereo not shown) [Example 71, 5-[({6-Bromo-2-[3-fluoro-3-methylpyrrolidin-1-yl]-3-methylquinolin-4-yl}carbonyl)amino]-4-(2-chlorophenyl)pentanoic acid], for which the IC50 was found to be 110 nM.

Take `Cc1c(N2CCCC(C#N)C2)nc2ccc(Br)cc2c1C(=O)NCC(CCC(=O)O)c1ccccc1Cl` (stereo not shown) [Example 76, 5-[({6-Bromo-2-[3-cyanopiperidin-1-yl]-3-methylquinolin-4-yl}carbonyl)amino]-4-(2-chlorophenyl)pentanoic acid]: the IC50 came to 670 nM.

As to `Cc1c(N2CCCC(F)C2)nc2ccc(Br)cc2c1C(=O)NCC(CCC(=O)O)c1ccccc1Cl` (stereo not shown) [Example 78, 5-[({6-Bromo-2-[3-fluoropiperidin-1-yl]-3-methylquinolin-4-yl}carbonyl)amino]-4-(2-chlorophenyl)pentanoic acid], the IC50 was found to be 4.4 nM.

Turning to `Cc1c(N2CCCC2C)nc2ccc(Br)cc2c1C(=O)NCC(CCC(=O)O)c1ccccc1Cl` (stereo not shown) [Example 79, 5-[({6-Bromo-3-methyl-2-[2-methylpyrrolidin-1-yl]quinolin-4-yl}carbonyl)amino]-4-(2-chlorophenyl)pentanoic acid], the IC50 was 7.8 nM.

On to `Cc1c(N2CCCC(C(N)=O)C2)nc2ccc(Br)cc2c1C(=O)NCC(CCC(=O)O)c1ccccc1Cl` (stereo not shown) [Example 85, 5-[({6-Bromo-2-[3-carbamoylpiperidin-1-yl]-3-methylquinolin-4-yl}carbonyl)amino]-4-(2-chlorophenyl)pentanoic acid], for which the IC50 was 590 nM.

Take `Cc1c(N2CCOC(C)C2)nc2ccc(Br)cc2c1C(=O)NCC(CCC(=O)O)c1ccccc1Cl` (stereo not shown) [Example 89, 5-[({6-Bromo-3-methyl-2-[2-methylmorpholin-4-yl]quinolin-4-yl}carbonyl)amino]-4-(2-chlorophenyl)pentanoic acid]: the IC50 was determined as 350 nM.

With `Cc1c(N2CCCC(C(C)C)C2)nc2ccc(Br)cc2c1C(=O)NCC(CCC(=O)O)c1ccccc1Cl` (stereo not shown) [Example 91, 5-[({6-Bromo-2-[3-isopropylpiperidin-1-yl]-3-methylquinolin-4-yl}carbonyl)amino]-4-(2-chlorophenyl)pentanoic acid], the IC50 turned out to be 9.9 nM.

Turning to `COCC1CCCN(c2nc3ccc(Br)cc3c(C(=O)NCC(CCC(=O)O)c3ccccc3Cl)c2C)C1` (stereo not shown) [Example 93, 5-[({6-Bromo-2-[3-(methoxymethyl)piperidin-1-yl]-3-methylquinolin-4-yl}carbonyl)amino]-4-(2-chlorophenyl)pentanoic acid], the 50% inhibitory concentration (IC50) turned out to be 80 nM.

Turning to `Cc1c(N2CCCCC2C)nc2ccc(Br)cc2c1C(=O)NCC(CCC(=O)O)c1ccccc1Cl` (stereo not shown) [Example 108, 5-[({6-Bromo-3-methyl-2-[2-methylpiperidin-1-yl]quinolin-4-yl}carbonyl)amino]-4-(2-chlorophenyl)pentanoic acid], the IC50 amounted to 360 nM.

For `Cc1c(N2CCCC(F)C2)nc2ccc(Br)cc2c1C(=O)NCC(CCC(=O)O)c1ccccc1C(F)(F)F` (stereo not shown) [Example 123, 5-[({6-Bromo-2-[3-fluoropiperidin-1-yl]-3-methylquinolin-4-yl}carbonyl)amino]-4-[2-(trifluoromethyl)phenyl]pentanoic acid], the IC50 came out at 13 nM.

As for `CCC1CCCN(c2nc3ccc(Br)cc3c(C(=O)NCC(CCC(=O)O)c3ccccc3C(F)(F)F)c2C)C1` (stereo not shown) [Example 124, 5-[({6-Bromo-2-[3-ethylpiperidin-1-yl]-3-methylquinolin-4-yl}carbonyl)amino]-4-[2-(trifluoromethyl)phenyl]pentanoic acid], the concentration for half-maximal inhibition (IC50) was 2.8 nM.

`Cc1c(N2CCCC(C)C2)nc2ccc(Br)cc2c1C(=O)NCC(CCC(=O)O)c1ccccc1C(F)(F)F` (stereo not shown) [Example 125, 5-[({6-Bromo-3-methyl-2-[3-methylpiperidin-1-yl]quinolin-4-yl}carbonyl)amino]-4-[2-(trifluoromethyl)phenyl]pentanoic acid]: the 50% inhibitory concentration (IC50) was 5.2 nM.

Take `Cc1c(N2CCCC(F)C2)nc2ccc(Br)cc2c1C(=O)NCC(CCC(=O)O)c1ccccc1OC(F)(F)F` (stereo not shown) [Example 138, 5-[({6-Bromo-2-[3-fluoropiperidin-1-yl]-3-methylquinolin-4-yl}carbonyl)amino]-4-[2-(trifluoromethoxy)phenyl]pentanoic acid]: the half-inhibitory concentration (IC50) came out at 3 nM.

In the case of `CCC1CCCN(c2nc3ccc(Br)cc3c(C(=O)NCC(CCC(=O)O)c3ccccc3OC(F)(F)F)c2C)C1` (stereo not shown) [Example 139, 5-[({6-Bromo-2-[3-ethylpiperidin-1-yl]-3-methylquinolin-4-yl}carbonyl)amino]-4-[2-(trifluoromethoxy)phenyl]pentanoic acid], the IC50 came to 1.5 nM.

With `Cc1c(N2CCCC(C)C2)nc2ccc(Br)cc2c1C(=O)NCC(CCC(=O)O)c1ccccc1OC(F)(F)F` (stereo not shown) [Example 140, 5-[({6-Bromo-3-methyl-2-[3-methylpiperidin-1-yl]quinolin-4-yl}carbonyl)amino]-4-[2-(trifluoromethoxy)phenyl]pentanoic acid], the concentration for half-maximal inhibition (IC50) is 2.3 nM.

Consider `Cc1c(N2CCCC(F)C2)nc2ccc(Br)cc2c1C(=O)NCC(CCC(=O)O)c1c(F)ccc(F)c1Cl` (stereo not shown) [Example 156, 5-[({6-Bromo-2-[3-fluoropiperidin-1-yl]-3-methylquinolin-4-yl}carbonyl)amino]-4-(2-chloro-3,6-difluorophenyl)pentanoic acid], for which the half-inhibitory concentration (IC50) turned out to be 2.5 nM.

For the compound `Cc1c(N2CCCC(C)C2)nc2ccc(Br)cc2c1C(=O)NCC(CCC(=O)O)c1c(F)ccc(F)c1Cl` (stereo not shown) [Example 157, 5-[({6-Bromo-3-methyl-2-[3-methylpiperidin-1-yl]quinolin-4-yl}carbonyl)amino]-4-(2-chloro-3,6-difluorophenyl)pentanoic acid], the IC50 is 1.7 nM.

As for `CCC1CCCN(c2nc3ccc(Br)cc3c(C(=O)NCC(CCC(=O)O)c3c(F)ccc(F)c3Cl)c2C)C1` (stereo not shown) [Example 158, 5-[({6-Bromo-2-[3-ethylpiperidin-1-yl]-3-methylquinolin-4-yl}carbonyl)amino]-4-(2-chloro-3,6-difluorophenyl)pentanoic acid], the IC50 worked out at 1.6 nM.

Take `Cc1c(N2CCCC(F)C2)nc2ccc(Br)cc2c1C(=O)NCC(CCC(=O)O)c1c(F)cccc1C(F)(F)F` (stereo not shown) [Example 169, 5-[({6-Bromo-2-[3-fluoropiperidin-1-yl]-3-methylquinolin-4-yl}carbonyl)amino]-4-[2-fluoro-6-(trifluoromethyl)phenyl]pentanoic acid]: the concentration for half-maximal inhibition (IC50) was 9.1 nM.

For the compound `CCC1CCCN(c2nc3ccc(Br)cc3c(C(=O)NCC(CCC(=O)O)c3c(F)cccc3C(F)(F)F)c2C)C1` (stereo not shown) [Example 170, 5-[({6-Bromo-2-[3-ethylpiperidin-1-yl]-3-methylquinolin-4-yl}carbonyl)amino]-4-[2-fluoro-6-(trifluoromethyl)phenyl]pentanoic acid], the IC50 turned out to be 2.7 nM.

Regarding `Cc1c(N2CCCC(F)C2)nc2ccc(Br)cc2c1C(=O)NCC(CCC(=O)O)c1c(Cl)ccc(Cl)c1Cl` (stereo not shown) [Example 180, 5-[({6-Bromo-2-[3-fluoropiperidin-1-yl]-3-methylquinolin-4-yl}carbonyl)amino]-4-(2,3,6-trichlorophenyl)pentanoic acid], the IC50 turned out to be 14 nM.

Take `CCC1CCCN(c2nc3ccc(Br)cc3c(C(=O)NCC(CCC(=O)O)c3c(Cl)ccc(Cl)c3Cl)c2C)C1` (stereo not shown) [Example 181, 5-[({6-Bromo-2-[3-ethylpiperidin-1-yl]-3-methylquinolin-4-yl}carbonyl)amino]-4-(2,3,6-trichlorophenyl)pentanoic acid]: the half-inhibitory concentration (IC50) was determined as 6.6 nM.

For `Cc1c(N2CCCC(F)C2)nc2ccc(Br)cc2c1C(=O)NCC(CCC(=O)O)c1c(F)cccc1F` (stereo not shown) [Example 253, 5-[({6-Bromo-2-(3-fluoropiperidin-1-yl)-3-methylquinolin-4-yl}carbonyl)amino]-4-(2,6-difluorophenyl)pentanoic acid], the IC50 worked out at 25 nM.

In the case of `CCC1CCCN(c2nc3ccc(Br)cc3c(C(=O)NCC(CCC(=O)O)c3c(F)cccc3F)c2C)C1` (stereo not shown) [Example 254, 5-[({6-Bromo-2-(3-ethylpiperidin-1-yl)-3-methylquinolin-4-yl}carbonyl)amino]-4-(2,6-difluorophenyl)pentanoic acid], the half-inhibitory concentration (IC50) came out at 2.8 nM.

On to `Cc1c(N2CCCC(F)C2)nc2ccc(Br)cc2c1C(=O)NCC(CCC(=O)O)c1cc(F)ccc1F` (stereo not shown) [Example 264, 5-[({6-Bromo-2-(3-fluoropiperidin-1-yl)-3-methylquinolin-4-yl}carbonyl)amino]-4-(2,5-difluorophenyl)pentanoic acid], for which the concentration for half-maximal inhibition (IC50) stood at 30 nM.

Regarding “(+)-5-({[6-Bromo-3-methyl-2-(piperidin-1-yl)quinolin-4-yl]carbonyl}amino)-4-(2,3,6-trichlorophenyl)pentanoic acid [Example 175]”, the concentration for half-maximal inhibition (IC50) came to 160 nM.

Regarding “(+)-5-[({6-Bromo-3-methyl-2-[(^2H8)pyrrolidin-1-yl]quinolin-4-yl}carbonyl)amino]-4-[2-(trifluoromethyl)phenyl]pentanoic acid [Example 278]”, the IC50 was found to be 34 nM.

As to “(+)-5-[({6-Bromo-3-methyl-2-[(^2H10)piperidin-1-yl]quinolin-4-yl}carbonyl)amino]-4-[2-(trifluoromethyl)phenyl]pentanoic acid [Example 270]”, the IC50 turned out to be 3.3 nM.
